System: cell lines with different genetic status of Keap1
Experiment: Relative viability in response to succinylacetone
Type: cell-based
Settings: dominant negative Keap1 alleles vs Keap1 mutant cells, FIG. 35B
Text: FIG. 35A depicts a western blot validation of various Keap1 cDNA constructs including WT and multiple mutants found in LUAD. FIG. 35B depicts the relative viability of cell lines with different genetic status of Keap1 in response to different concentrations of succinylacetone, an inhibitor of Alas1.

## CC(=O)CC(=O)CCC(=O)O [succinylacetone, 4,6-Dioxoheptanoic acid]
  relative viability in response to succinylacetone: further sensitize Keap1 mutant cells to heme synthesis inhibition
